Assays:
human monocytes (Mo) = assay: Cytokine/chemokine secretion by TMX-tolerant human monocytes (ELISA); assay type: cell-based
Protocol: Cell Culture and treatments. Monocytes (Mo) were obtained from buffycoats collected from healthy donors as previously described (Porta C et al, PNAS 2009). Cells were incubated in RPMI 1640 medium, containing 10% fetal bovine serum, 2 mM glutamine and 100 U/ml of penicillin-streptomycin. The concentrations for the different treatments were as follows: LPS (100 ng/ml) (Lipopolysaccharide from Salmonella Abortus Equi S-form, Alexis), CpG (1 microg/ml), Pam3CSK (2 microg/ml), Poly I:C (10 microg/ml), Loxorubine (100 microM), flagellin (100 ng/ml). To induce TMX tolerance, cells were incubated in the presence of TMX (10 microM) for 20 hrs, washed and maintained in RPMI medium for 2 hrs and then re-challenged with TMX (10 microM) for 4 hrs. To induce TMX-tolerization (T/M) cells were treated with TMX for 20 hrs, washed and then maintained in medium for additional 6 hours, without TMX re-challenge. To induce M1-activation cells were incubated in medium for 20 hrs, washed, left in medium for 2 hrs and finally stimulated with TMX (10 microM) for 4 hrs. Control cells (M/M) were cultured in medium for the entire period of the experiment. For gene expression analysis, total RNA was extracted from TMX treated and untreated cells with trizol (Invitrogen), according to the manufacturer's instructions. To analyze cytokines and chemokines production supernatants were collected 24 hrs after the second challenge with TMX.
ELISA. Cell-free supernatants were tested by ELISA for the indicated cytokines/chemokines. Human TNF-alpha, IL-6, IL-1beta, IL-10, CCL17 and CCL22 ELISA kits were purchased from R&D Systems (Minneapolis, Minn.).

[1] = system: Bleomycin-induced fibrosis in C57BU6 mice; assay: Bleomycin-induced lung fibrosis in mice; assay type: in vivo; settings: 500 nmol/animal s.c. daily; day 7 and day 21; ELISA
Protocol: The efficacy of Compound 2 on mouse models of idiopathic lung fibrosis was studied as follows. Lung fibrosis was induced in 6-8 week old female C57BU6 mice. 0.8 U/kg of bleomycin (Hospira, Inc., Lake Forest, Ill.) was administered by intratracheal (i.t.) instillation on day 0. Bleomycin treated C57BU6 mice were divided into four groups (n 7 per group). Groups 2 and 4 were subcutaneously treated with Compound 2 at daily dose of 500 nmol/animal. Groups 1 and 3 were treated with saline control. Groups 1 and 2 were sacrificed on day 7 and groups 3 and 4 were sacrificed on day 21.
Measurements: Lung inflammation and fibrosis were evaluated by the following parameters: 1) cell infiltration to bronchial alveolar lavage (BAL); BAL were collected at the time of sacrifice and cell number was counted by hematocytometer. The infiltrated cells were differentiated by Wright-Giemsa staining. 2) BAL cytokines (IL-6, and IL-1b) by ELISA). 3) Lung histology by H&E staining and Sirius red staining (fibrosis). Histological samples were evaluated blindly.

[2] = system: murine peritoneal macrophages (PEC); assay: Secretion of M1 and M2 gene products by TMX-tolerant PEC (ELISA); assay type: cell-based, mice
Protocol: Based on the results of the gene expression analysis, performed by Real-Time PCR, selected gene products are validated at protein level, either by cytofluorimetry (surface molecules) or ELISA (secreted products).
The secretion of selected M1 and M2 gene products by TMX-tolerant murine peritoneal macrophages (PEC) was evaluated.
Cell Culture and treatments. Peritoneal exudate cells (PEC) were harvested from mice injected with 1 ml of 3% (w/v) thioglycollate medium (Difco, Detroit, Mich.) 4 days prior to isolation. PECs were incubated in RPMI 1640 medium, containing 10% fetal bovine serum, 2 mM glutamine and 100 U/ml of penicillin-streptomycin. The concentration for the different treatments were as follows: LPS (100 ng/ml) (Lipopolysaccharide from Salmonella Abortus Equi S-form, Alexis), CpG (1 μg/ml), Pam3CSK (2 μg/ml), Poly I:C (10 μg/ml), Loxorubine (100 μM), flagellin (100 ng/ml) IL-1β (20 ng/ml), TNF (20 ng/ml), IL-10 (20 ng/ml) (Peprotech), IFNγ (200 U/ml) (Peprotech). To induce TMX tolerance, cells were incubated in the presence of TMX (10 μM or 1 μM) for 20 hrs, washed and maintained in RPMI medium for 2 hrs and then re-challenged with TMX (10 μM) for 4 hrs. To induce TMX-tolerization (T/M) cells were treated with TMX for 20 hrs, washed and then maintained in medium for additional 6 hours, without TMX re-challenge. […]

[3] = TMX-tolerized cells re-challenged with TMX or 1V209

SMILES: COCCOc1nc(N)c2nc(O)n(Cc3ccc(C(=O)NCCOCCOCCOCCOCCOCCOCCn4cc(CCC(=O)O)nn4)cc3)c2n1 [Compound 2]
- levels of IL-10 in the supernatant of TMX-tolerant monocytes (human monocytes (Mo)): decreased
- secretion of selected M2 markers (CCL17 and CCL22) (human monocytes (Mo); TMX-tolerized Mo from 2 out of 4 healthy donors): significantly augmented
- CCL17 and CCL22 secretion (human monocytes (Mo); [3]): induction
- TNFalpha and IL-6 secretion (human monocytes (Mo); [3]): inhibition
- IL-10 production by Compound 2-conditioned cells (human monocytes (Mo); as stated in comparison of human and mouse data): increased
- TNF and IL-6 secretion (human monocytes (Mo); cells tolerized with TMX and re-challenged with TLR agonists, except for LPS): decreased
- IL-1beta production in TMX-tolerized cells (human monocytes (Mo); re-challenged with TLR agonists): all TLR agonists promote IL-1beta production
- levels of IL-6 and IL-1b cytokines in BAL [1]: under the detection levels of ELISA
- IL-1p and IL-6 in the supernatant of TMX-tolerant macrophages ([2]; ELISA): increased levels
- state of tolerance: M1 and M2 cytokines production ([2]; only 10 microM TMX, ELISA of supernatants): low M1 and high M2 cytokines production
